Measured values published in patent publication US6197982A, “Vitamin D analogues” (priority 1996, dated 2001).
Entries after “also recorded” stand apart in the source; their conditions may differ. Where two headings read alike, the source gives them in different places.

What was measured:
mouse spleen lymphocytes = assay: mixed lymphocyte reaction (MLR), 3H-thymidine incorporation; assay type: cell-based, mouse (BALB/c and CB6F1); settings: for immunosuppressive activity (MLR), in words: also in comparison with prior art reference compounds; for MLR rel. (ratio between the IC50 value of 1,25(OH)2 D3 and the IC50 value of the compound): relative to 1,25(OH)2 D3, 72 hours, >1 = more active
Experimental: The mixed cultures of lymphocytes are incubated with the test compounds for 72 hours. Cellular DNA-synthesis is assessed by the incorporation of ^3 H-thymidine in the D
(§1) .sunburst. The values are relative to 1,25 (OH)2 D3; a value
(§2) H-thymidine incorporation compared to controls.

[1] = calcemic activity in rats in vivo; design: species or system rat; key to Calc. rel. (calcemic activity relative to 1,25(OH)2 D3): calcemic activity relative to 1,25(OH)2D3 (=1); settings: for calcemic activity, in words: compared with 1,25(OH)2 D3; for Calc. rel. (calcemic activity relative to 1,25(OH)2 D3): rats in vivo, low values preferred
Experimental: The calcemic activity of the compounds was determined in rats in vivo, as previously described. In table 1, column "Calc., rel.", the calcemic activities of selected compounds (relative to 1,25(OH)2 D3) are listed; as mentioned, low values for the compounds of the present invention are ordinarily preferred.
as §1

[2] = tested on: HaCaT, human skin keratinocyte cell line; assay: HaCaT antiproliferative assay, 3H-thymidine uptake; assay type: cell-based; settings: for inhibition at 0.1 µM: Homo sapiens, HaCaT, read-out: HaCaT, max. % (maximal inhibition of the cell proliferation); for inhibition at 0.1 µM / maximal inhibition in HaCaT, in words: at 10^-7 M; for maximal inhibition in HaCaT, in words / potency in the HaCaT-assay (psoriasis model), in words: compared with 1,25(OH)2 D3; for HaCaT rel. (ratio between the IC50 value of 1,25(OH)2 D3 and the IC50 value of the compound): relative to 1,25(OH)2 D3, 3H-thymidine incorporation, >1 = more active
Description: as §1, §2
.cndot. "HaCaT, max %" indicates the maximal inhibition of the cell
proliferation (maximal efficacy) which is obtainable at the higher
concentration of 10^-7 M of a compound.

[3] = tested on: regulatory/suppressor T-lymphocytes; settings: cited from earlier work
immune functions = settings: in vivo; cited from earlier work
B-lymphocytes = settings: in vitro; cited from earlier work
calcium metabolism = settings: cited from earlier work; for activity on calcium metabolism: in vivo
cells = settings: cited from earlier work
activated T-lymphocytes = settings: cited from earlier work
monocytes/macrophages = settings: cited from earlier work
[4] = tested on: type I diabetes, non-obese diabetic (NOD) mouse; settings: cited from earlier work
Cytotoxic T-cells = settings: cited from earlier work
angiogenesis = settings: cited from earlier work
skin allograft = settings: mice; cited from earlier work
breast cancer cells [5] = settings: in vitro; cited from earlier work
breast cancer cells [6] = settings: cited from earlier work
transcriptional activity = settings: compared to 1,25(OH)2 D3; cited from earlier work
[7] = tested on: autoimmune disease recurrence in NOD mice; settings: cited from earlier work
[8] = in vivo; cited from earlier work
psoriasis = settings: cited from earlier work
graft rejection = settings: cited from earlier work

C=C1/C(=C\C=C2/CCC[C@]3(C)[C@@H]([C@@H](C)C(CCC(C)(C)O)OC)CC[C@@H]23)C[C@@H](O)C[C@@H]1O (single isomer, unassigned) [Compound 101]
immunosuppressive activity (MLR), in words (mouse spleen lymphocytes): potent effects
MLR rel. (ratio between the IC50 value of 1,25(OH)2 D3 and the IC50 value of the compound) (mouse spleen lymphocytes): 175
calcemic activity, in words [1]: only about half as large as that of 1,25(OH)2 D3
Calc. rel. (calcemic activity relative to 1,25(OH)2 D3) [1]: 0.45
inhibition at 0.1 µM [2]: 92%
maximal inhibition in HaCaT, in words [2]: the same, or higher, maximal inhibition at 10^-7 M as 1,25(OH)2 D3
potency in the HaCaT-assay (psoriasis model), in words [2]: considerably more potent than 1,25(OH)2 D3
HaCaT rel. (ratio between the IC50 value of 1,25(OH)2 D3 and the IC50 value of the compound) [2]: 28

C=C1/C(=C\C=C2/CCC[C@]3(C)[C@@H]([C@@H](C)C(CCC(C)(C)O)OCC)CC[C@@H]23)C[C@@H](O)C[C@@H]1O (single isomer, unassigned) [Compound 102]
immunosuppressive activity (MLR), in words (mouse spleen lymphocytes): potent effects
MLR rel. (ratio between the IC50 value of 1,25(OH)2 D3 and the IC50 value of the compound) (mouse spleen lymphocytes): 161
calcemic activity, in words [1]: only about half as large as that of 1,25(OH)2 D3
Calc. rel. (calcemic activity relative to 1,25(OH)2 D3) [1]: 0.50
inhibition at 0.1 µM [2]: 85%
maximal inhibition in HaCaT, in words [2]: the same, or higher, maximal inhibition at 10^-7 M as 1,25(OH)2 D3
potency in the HaCaT-assay (psoriasis model), in words [2]: considerably more potent than 1,25(OH)2 D3
HaCaT rel. (ratio between the IC50 value of 1,25(OH)2 D3 and the IC50 value of the compound) [2]: 137

C=C1/C(=C\C=C2/CCC[C@]3(C)[C@@H]([C@H](C)CCCC(C)(C)O)CC[C@@H]23)C[C@@H](O)C[C@@H]1O [1,25(OH)2 D3, 1α,25-dihydroxy-vitamin D3]
regulatory/suppressor T-lymphocytes [3]: stimulated
immune functions in vitamin D deficiency states (immune functions): restores normal immune functions in vitamin D deficiency states in vivo
formation of antibodies (IgM and IgG) from B-lymphocytes (B-lymphocytes): indirect inhibition of the formation of antibodies (IgM and IgG)
hypercalcemia (calcium metabolism; high doses necessary for therapeutic effect on e.g. psoriasis, cancer, immunological disorders): serious side effects due to hypercalcemia
differentiation of cells (cells): stimulate the differentiation of cells
excessive cell proliferation (cells): inhibit excessive cell proliferation
MLR rel. (ratio between the IC50 value of 1,25(OH)2 D3 and the IC50 value of the compound) (mouse spleen lymphocytes): 1
cytokines IL-2 and INF-γ (activated T-lymphocytes): down-regulation of cytokines IL-2 and INF-γ
proliferation of activated T-lymphocytes (activated T-lymphocytes): inhibited
production/release of cytokines such as IL-1 and TNF (monocytes/macrophages; antigen-stimulated monocytes/macrophages): downregulation
antibacterial activity of monocytes/macrophages (monocytes/macrophages): enhances their antibacterial activity
differentiation of monocytes towards macrophages (monocytes/macrophages): stimulates the differentiation of monocytes towards macrophages
immunoregulation in type I diabetes [4]: effective immunomodulator
Calc. rel. (calcemic activity relative to 1,25(OH)2 D3) [1]: 1
cytotoxic T-cells (Cytotoxic T-cells): inhibited
angiogenesis (angiogenesis): inhibition of angiogenesis
inhibition at 0.1 µM [2]: 85%
HaCaT rel. (ratio between the IC50 value of 1,25(OH)2 D3 and the IC50 value of the compound) [2]: 1

C=C1/C(=C\C=C2/CCC[C@]3(C)[C@@H]([C@@H](C)C(O)CCC(C)(C)O)CC[C@@H]23)C[C@@H](O)C[C@@H]1O (stereo partly drawn) [CB1297]
MLR rel. (ratio between the IC50 value of 1,25(OH)2 D3 and the IC50 value of the compound) (mouse spleen lymphocytes): 12
inhibition at 0.1 µM [2]: 75%
HaCaT rel. (ratio between the IC50 value of 1,25(OH)2 D3 and the IC50 value of the compound) [2]: 45

C=C1/C(=C\C=C2/CCC[C@]3(C)[C@@H]([C@H](C)CCCCC(O)(CC)CC)CC[C@@H]23)C[C@@H](O)C[C@@H]1O [CB 966]
skin allograft survival / immunosuppression (skin allograft): prolonged skin allograft survival in mice

C=C1/C(=C\C=C2/CCC[C@]3(C)[C@@H]([C@H](C)/C=C/C=C/C(O)(CC)CC)CC[C@@H]23)C[C@@H](O)C[C@@H]1O [EB 1089]
growth of breast cancer cells (breast cancer cells [5]): inhibits the growth of breast cancer cells in vitro
growth of breast cancer cells (breast cancer cells [6]): inhibits the growth of breast cancer cells in vitro and in vivo
selectivity between the anti-cancer and the calcemic effects (breast cancer cells [6]; in vivo): definite selectivity between the anti-cancer and the calcemic effects in vivo

C=C1/C(=C\C=C2/CCC[C@]3(C)[C@@H]([C@@H](C)C(O)C#CC(O)(CC)CC)CC[C@@H]23)C[C@@H](O)C[C@@H]1O (stereo partly drawn) [GS1535]
MLR rel. (ratio between the IC50 value of 1,25(OH)2 D3 and the IC50 value of the compound) (mouse spleen lymphocytes): 13
Calc. rel. (calcemic activity relative to 1,25(OH)2 D3) [1]: 8.2
inhibition at 0.1 µM [2]: 82%
HaCaT rel. (ratio between the IC50 value of 1,25(OH)2 D3 and the IC50 value of the compound) [2]: 313

C=C1/C(=C\C=C2/CCC[C@]3(C)[C@@H]([C@@H](C)C(C#CC(O)(CC)CC)OCC)CC[C@@H]23)C[C@@H](O)C[C@@H]1O (stereo partly drawn) [GS1720]
MLR rel. (ratio between the IC50 value of 1,25(OH)2 D3 and the IC50 value of the compound) (mouse spleen lymphocytes): 36
Calc. rel. (calcemic activity relative to 1,25(OH)2 D3) [1]: 1.2
inhibition at 0.1 µM [2]: 70%
HaCaT rel. (ratio between the IC50 value of 1,25(OH)2 D3 and the IC50 value of the compound) [2]: 3.9

C=C1/C(=C\C=C2/CCC[C@]3(C)[C@@H]([C@@H](C)C(C#CC(O)(CC)CC)OC)CC[C@@H]23)C[C@@H](O)C[C@@H]1O (stereo partly drawn) [GS1725]
MLR rel. (ratio between the IC50 value of 1,25(OH)2 D3 and the IC50 value of the compound) (mouse spleen lymphocytes): 150
Calc. rel. (calcemic activity relative to 1,25(OH)2 D3) [1]: 12
inhibition at 0.1 µM [2]: 96%
HaCaT rel. (ratio between the IC50 value of 1,25(OH)2 D3 and the IC50 value of the compound) [2]: 4.4

C=C1/C(=C\C=C2/CCC[C@]3(C)[C@@H]([C@@H](C)OCCCC(O)(CC)CC)CC[C@@H]23)C[C@@H](O)C[C@@H]1O [KH 1060, 20-epi-22-oxa-25,26,27-trihomo-1,25-(OH)2 D3]
transcriptional activity (transcriptional activity): enhanced transcriptional activity
toxicity [7]: toxic in the most effective high doses
delaying autoimmune disease recurrence ([7]; islet transplantation): very effective in delaying autoimmune disease recurrence
effect on calcium and bone [4]: only slight
immunoregulation in type I diabetes [4]: effective immunoregulator
hypercalcemia / serum calcium (skin allograft): induced hypercalcemia in the highest, and most effective, dose
skin allograft survival / immunosuppression (skin allograft): prolonged skin allograft survival in mice; also recorded: most potent immunosuppressor

C=C1/C(=C\C=C2/CCC[C@]3(C)[C@@H]([C@H](C)/C=C/[C@@H](O)C4CC4)CC[C@@H]23)C[C@@H](O)C[C@@H]1O [MC903]
metabolism [8]: rapid metabolism
activity on calcium metabolism (calcium metabolism): only moderate activity on calcium metabolism in vivo
activity on calcium metabolism (calcium metabolism; listed as Calcipotriol): low in vivo activity on calcium metabolism
MLR rel. (ratio between the IC50 value of 1,25(OH)2 D3 and the IC50 value of the compound) (mouse spleen lymphocytes): 0.6
Calc. rel. (calcemic activity relative to 1,25(OH)2 D3) [1]: 0.005
hypercalcemia in patients (psoriasis; psoriasis patients): without hypercalcemia
improvement, % of the patients (psoriasis; without hypercalcemia, psoriasis): 70-80%
inhibition at 0.1 µM [2]: 78%
HaCaT rel. (ratio between the IC50 value of 1,25(OH)2 D3 and the IC50 value of the compound) [2]: 1.8

C=C1/C(=C\C=C2/CCC[C@]3(C)[C@@H]([C@@H](C)CCCC(C)(C)O)CC[C@@H]23)C[C@@H](O)C[C@@H]1O [MC1288, 20-epi-1,25(OH)2 D3]
transcriptional activity (transcriptional activity): enhanced transcriptional activity
MLR rel. (ratio between the IC50 value of 1,25(OH)2 D3 and the IC50 value of the compound) (mouse spleen lymphocytes): 150
immunosuppression / prevention of graft rejection (graft rejection; rat heart and small bowel transplantation): effective as an immunosuppressant in a rat model of heart and small bowel transplantations, preventing graft rejection; also recorded: valuable immunosuppressive activity in animal transplantation experiments
serum calcium level (graft rejection; rat transplantation model): moderately increased
Calc. rel. (calcemic activity relative to 1,25(OH)2 D3) [1]: 2.5
inhibition at 0.1 µM [2]: 76%
HaCaT rel. (ratio between the IC50 value of 1,25(OH)2 D3 and the IC50 value of the compound) [2]: 43
hypercalcemia / serum calcium (skin allograft): less hypercalcemic than KH 1060
skin allograft survival / immunosuppression (skin allograft): very effective
